Measured values reported in US11472788B2, “Benzoimidazoles as selective inhibitors of indoleamine 2,3-dioxygenases” (BEIGENE, LTD., priority 2017, dated 2022).

Legend:
[1] = target: cellular IDO1 in HeLa cells (Homo sapiens (Human), UniProt P14902); experiment: HeLa Cell-Based IDO1 Kyn (Kynurenine) Production Assay; details: IFN-γ induced IDO1, 48 hours incubation, Kyn absorbance at 480 nm
Outline: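 Compounds added to HeLa cells together with IFN-γ (100 ng/mL final) and 0.4 mM L-Trp, 48 h at 37 °C. Kynurenine in TCA-deproteinized supernatant measured colorimetrically with 4-(dimethylamino)benzaldehyde at 480 nm; IC50 from four-parameter logistic fit.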

Recombinant IDO1 = Recombinant IDO1 (Homo sapiens (Human), UniProt P14902); experiment: IDO1 enzymatic assay; assay type: biochemical; details: 50 nM IDO1, 1.3 mM D-tryptophan, pH 7.5, read-out: Enzyme assay IC50
Chain of Recombinant IDO1 (P14902 whole entry, species assumed): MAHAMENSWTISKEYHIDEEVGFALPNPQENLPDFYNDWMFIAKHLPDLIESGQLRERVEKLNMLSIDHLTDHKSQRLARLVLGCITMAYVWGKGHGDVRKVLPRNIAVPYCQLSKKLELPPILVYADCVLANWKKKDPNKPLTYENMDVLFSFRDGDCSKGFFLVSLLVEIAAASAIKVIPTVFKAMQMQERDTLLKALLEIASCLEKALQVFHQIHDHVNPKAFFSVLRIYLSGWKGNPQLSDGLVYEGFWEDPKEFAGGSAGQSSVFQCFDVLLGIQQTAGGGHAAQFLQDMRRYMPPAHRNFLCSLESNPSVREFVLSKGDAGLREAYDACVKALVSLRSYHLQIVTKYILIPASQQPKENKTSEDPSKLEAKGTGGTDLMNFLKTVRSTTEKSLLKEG
Description: Recombinant IDO1 was overexpressed and purified from E. coli cells with an N-terminal His tag. IDO1 enzymatic assay was carried out using a methodology similar to described in the literature (J. Biol. Chem. (1980), 255, 1339-1345). The reaction mixture contains 50 nM IDO1, 1.3 mM D-tryptophan, 5 mM L-ascorbic acid, […] methylene Blue, 0.4 mg/mL catalase and compound (or DMSO) in a buffer containing 50 mM potassium phosphate pH 7.5 and 0.1% BSA. After incubation at 24° C. for 1.5 hours, absorbance of the reaction mixture was continuously read at 321 nm to monitor the formation of N′-formylkynurenine by a FULOstar OMEGA plate reader (BMG LABTECH) for 1 hour. The enzymatic activity was determined by measuring the slope of the linear absorbance increase as a function of time. The IC50s are calculated based on remaining enzyme activity in the presence of increasing concentrations of compounds.

Chain of cellular IDO1 in HeLa cells (P14902 whole entry): as the sequence (P14902 whole entry, species assumed) above

Row | EC50 [1] | IC50 (Recombinant IDO1) | Molecule
1 | 39 nM | > 10000 nM | Fc1ccc([C@H]2CC[C@@H](Cc3nc4cc(Cl)ccc4[nH]3)CC2)cc1 [Example A30b, 5-chloro-2-(((1s,4s)-4-(4-fluorophenyl)cyclohexyl)methyl)-1H-benzo[d]imidazole]
2 | 8.2 nM | 8200 nM | FC(F)(F)c1ccc2[nH]c(C[C@H]3CC[C@@H](c4ccccc4)CC3)nc2c1 [Example A33b, 2-(((1s,4s)-4-phenylcyclohexyl)methyl)-5-(trifluoromethyl)-1H-benzo[d]imidazole]
3 | 87 nM | 4800 nM | Clc1ccc2[nH]c(C[C@H]3CC[C@@H](c4ccccc4)CC3)nc2c1 [Example A34b, 5-chloro-2-(((1s,4s)-4-phenylcyclohexyl)methyl)-1H-benzo[d]imidazole]
4 | 24 nM | 3250 nM | Clc1ccc2[nH]c(C[C@H]3CC[C@@H](c4ccc5ncccc5c4)CC3)nc2c1 [Example A23b, 6-((1s,4s)-4-((5-chloro-1H-benzo[d]imidazol-2-yl)methyl)cyclohexyl)quinoline]
5 | 168 nM | 8000 nM | Clc1ccc2[nH]c(C[C@H]3CC[C@H](c4ccccc4)CC3)nc2c1 [Example A34a, 5-chloro-2-(((1r,4r)-4-phenylcyclohexyl)methyl)-1H-benzo[d]imidazole]
6 | 8 nM | > 10000 nM | 4-((1s,4s)-4-((5-chloro-1H-benzo[d]imidazol-2-yl)methyl)cyclohexyl)-6-fluoroquinoline [Example A1b]
7 | 852 nM | > 10000 nM | Clc1ccc2[nH]c(CC3CCN(c4ccnc5ccccc45)CC3)nc2c1 [Example A40, 4-(4-((5-chloro-1H-benzo[d]imidazol-2-yl)methyl)piperidin-1-yl)quinoline]
8 | 107 nM | > 10000 nM | Clc1cccc2[nH]c(C[C@H]3CC[C@@H](c4ccccc4)CC3)nc12 [Example A35, 4-chloro-2-(((1s,4s)-4-phenylcyclohexyl)methyl)-1H-benzo[d]imidazole]
9 | 143 nM | 8100 nM | c1ccc(C2CCC(Cc3nc4ccccc4[nH]3)CC2)cc1 (stereo not drawn) [Example A32, 2-((4-phenylcyclohexyl)methyl)-1H-benzo[d]imidazole]

The next lines start with the molecule.

Row | Molecule | EC50 [1] | IC50 (Recombinant IDO1)
10 | Clc1ccc2[nH]c(CC3CCC(c4ccc5ccccc5n4)CC3)nc2c1 (stereo not drawn) [Example A18, 2-(4-((5-chloro-1H-benzo[d]imidazol-2-yl)methyl)cyclohexyl)quinoline] | 50 nM | 5300 nM
11 | Cc1ccc2[nH]c(C[C@H]3CC[C@@H](c4ccnc5ccc(F)cc54)CC3)nc2c1 [Example A2b, 6-fluoro-4-((1s,4s)-4-((5-methyl-1H-benzo[d]imidazol-2-yl)methyl)cyclohexyl)quinoline] | 53 nM | > 10000 nM
12 | Fc1ccc2nccc(C3CCC(Cc4nc5cc(Cl)c(Cl)cc5[nH]4)CC3)c2c1 (stereo not drawn) [Example A12, 4-(4-((5,6-dichloro-1H-benzo[d]imidazol-2-yl)methyl)cyclohexyl)-6-fluoroquinoline] | 11 nM | > 10000 nM
13 | COc1ccc2[nH]c(CC3CCC(c4ccc5ccccc5n4)CC3)nc2c1 (stereo not drawn) [Example A21, 2-(4-((5-methoxy-1H-benzo[d]imidazol-2-yl)methyl)cyclohexyl)quinoline] | 131 nM | > 10000 nM
14 | Clc1ccc2[nH]c(C[C@H]3CC[C@H](c4ccnc5ccccc54)CC3)nc2c1 [Example A10a, 4-((1r,4r)-4-((5-chloro-1H-benzo[d]imidazol-2-yl)methyl)cyclohexyl)quinoline] | 91 nM | > 10000 nM
15 | Cc1cc2nc(C[C@H]3CC[C@@H](c4ccnc5ccc(F)cc54)CC3)[nH]c2cc1C [Example A9b, 4-((1s,4s)-4-((5,6-dimethyl-1H-benzo[d]imidazol-2-yl)methyl)cyclohexyl)-6-fluoroquinoline] | 24 nM | > 10000 nM
16 | Clc1ccc2[nH]c(CC3CCC(c4cccc5ncccc45)CC3)nc2c1 (stereo not drawn) [Example A22, 5-(4-((5-chloro-1H-benzo[d]imidazol-2-yl)methyl)cyclohexyl)quinoline] | 148 nM | > 10 nM
17 | Fc1ccc2nccc([C@H]3CC[C@@H](Cc4nc5cc(F)c(F)cc5[nH]4)CC3)c2c1 [Example A6b, 4-((1s,4s)-4-((5,6-difluoro-1H-benzo[d]imidazol-2-yl)methyl)cyclohexyl)-6-fluoroquinoline] | 14 nM | > 10000 nM
18 | Cc1cc2nc(C[C@H]3CC[C@H](c4ccnc5ccc(F)cc54)CC3)[nH]c2cc1C [Example A9a, 4-((1r,4r)-4-((5,6-dimethyl-1H-benzo[d]imidazol-2-yl)methyl)cyclohexyl)-6-fluoroquinoline] | 186 nM | > 10000 nM
19 | Clc1ccc2[nH]c(C[C@H]3CC[C@@H](c4ccnc5ccccc54)CC3)nc2c1 [Example A10b, 4-((1s,4s)-4-((5-chloro-1H-benzo[d]imidazol-2-yl)methyl)cyclohexyl)quinoline] | 10 nM | > 10000 nM
20 | O=C(O)c1ccc2[nH]c(CC3CCC(c4ccnc5ccc(F)cc45)CC3)nc2c1 (stereo not drawn) [Example A14, 2-((4-(6-fluoroquinolin-4-yl)cyclohexyl)methyl)-1H-benzo[d]imidazole-5-carboxylic acid] | > 10000 nM | > 10000 nM
21 | Fc1ccc2nccc([C@H]3CC[C@@H](Cc4nc5cc(C6CC6)ccc5[nH]4)CC3)c2c1 [Example A4b, 4-((1s,4s)-4-((5-cyclopropyl-1H-benzo[d]imidazol-2-yl)methyl)cyclohexyl)-6-fluoroquinoline] | 13 nM | > 10000 nM
22 | Cc1ccc2[nH]c(C[C@H]3CC[C@H](c4ccnc5ccc(F)cc54)CC3)nc2c1 [Example A2a, 6-fluoro-4-((1r,4r)-4-((5-methyl-1H-benzo[d]imidazol-2-yl)methyl)cyclohexyl)quinoline] | 241 nM | > 10000 nM
23 | Fc1ccc2nccc([C@H]3CC[C@H](Cc4nc5cc(F)c(F)cc5[nH]4)CC3)c2c1 [Example A6a, 4-((1r,4r)-4-((5,6-difluoro-1H-benzo[d]imidazol-2-yl)methyl)cyclohexyl)-6-fluoroquinoline] | 141 nM | > 10000 nM
24 | Fc1ccc2nccc(C3CCC(Cc4nc5cc(Cl)ccc5[nH]4)CC3)c2c1 (stereo not drawn) [Example A1a, 4-(4-((5-chloro-1H-benzo[d]imidazol-2-yl)methyl)cyclohexyl)-6-fluoroquinoline] | 51 nM | > 10000 nM
